Measured values: patent US12268670B2, “Combination of small molecule CD-47 inhibitors with other anti-cancer agents” (Aurigene Oncology Limited, priority 2018, dated 2025)
Marks after values point to notes of the source that are not given here.

Columns and labels:
[1] = system: H929 (multiple myeloma cell line) cells; experiment: Human macrophage phagocytosis assay in combination with bortezomib; type: cell-based; conditions: H929 cells treated with 10 nM bortezomib for 48 hrs, compared with compound alone; FIG. 2
Protocol: In vitro phagocytosis assay was performed to evaluate the ability of test item to enhance the phagocytic activity of macrophages. Monocytes were isolated from blood of healthy donors and cultured for 6-8 days using complete RPMI (Roswell Park Memorial Institute) supplemented with 20 ng/mL recombinant human M-CSF to differentiate them into macrophages. Media was changed every alternate day. Simultaneously H929 cells were cultured in complete RPMI media and treated with 10 nM bortezomib for 48 hrs. Macrophages were starved for 2 hrs in serum free RPMI.CFSE stained, Bortezomib treated/untreated H929 (multiple myeloma cell line) cells were seeded at a density of 0.2×10^6 cells/well in 96-well low attachment plate and treated with anti-human CD47 purified B6H12 (5 μg/mL)/Mouse IgG1 K Isotype Control antibody (5 μg/mL)/different concentrations of selected compounds of the present invention in serum free media for 30 min at 37° C. Serum starved macrophages were added to H929 cells at a ratio of 1:4 (macrophages:H929 cells) and incubated for 2 hours at 37° C. Cells in each well were stained with anti-human CD11b APC for 30 minutes at 4° C. in dark followed by fixation and FACS analysis. Cells positive for FITC and APC were considered as H929 cells phagocytosed by macrophages. Data acquired using FACS verse was analysed using Flow Jo software.

[2] = system: luciferase expressing Raji (lymphoma cell line) cells; experiment: Luciferase based phagocytosis assay (macrophages, combination with anti-human CD20 antibody); type: cell-based; conditions: in combination with anti-human CD20 antibody, compared with compound alone; FIG. 1
Protocol: In vitro phagocytosis assay was performed to evaluate the ability of test item to enhance the phagocytic activity of macrophages. Monocytes were isolated from blood of healthy donor and cultured for 6-8 days using 10% RPMI (Roswell Park Memorial Institute) media and recombinant human M-CSF to differentiate into macrophages. Media was changed every alternate day. After differentiation, adherent macrophages were collected by gentle scraping and cultured in 10% RPMI overnight at a density of 0.1 million per well in 48 well tissue culture plate. Simultaneously, luciferase expressing Raji (lymphoma cell line) cells were cultured in 10% RPMI media with 100 μg/mL of hygromycin B in tissue culture flask. On the day of phagocytosis, macrophages were serum starved for 2 hours. 0.4 million luciferase expressing Raji cells per well were incubated with anti-human CD47 antibody or Mouse IgG1 K Isotype Control antibody or various concentrations of selected compounds of the present invention alone or in combination with anti-human CD20 antibody in serum free media for 30 min at 37° C. and added into respective well of the 48 well plate seeded with macrophages. […] Luminescence reading was taken using plate reader after transferring the content of each well to white plate. Intensity of luminescence indicated the extent of phagocytosis. […]

[3] = system: A20 syngeneic lymphoma model; experiment: Efficacy study in A20 syngeneic lymphoma model; type: in vivo, Balb/c mice
Description: Female Balb/c (BALB/cAnNTac) mice (6-8 weeks-old) bred in-house were used in this efficacy study in the A20 syngeneic lymphoma model. The animals were marked individually with tail marks and kept in cages that were identified by a cage card showing the study code, date of experimentation, sex and number of animals. During the experiment, the animals were weighed daily. A20 cell line (B-cell lymphoma line derived from a spontaneous reticulum cell neoplasm found in an old BALB/cAnN mouse) was procured from ATCC.
When the mean tumor volumes reached approximately 75 mm^3, the animals were randomized based on tumor volumes into four groups (G1 to G4) of twelve animals (N=12) each and dosed with vehicle, Compound 6, anti-mouse PD-L1 antibody and the combination of Compound 6 and anti-mouse PD-L1 antibody as mentioned below:
The treatment was continued for a period of 21 days, during which the overall efficacy and tolerability were evaluated based on tumor volume and body weight changes observed during the treatment period.
Individual animal body weights were recorded daily before the administration of Compound 6 throughout the experimental period. […] The tumor volumes were measured in all treatment group animals thrice a week (once every 2-3 days) using a digital Vernier callipers. From an ethical viewpoint, any treatment/control group with a mean tumor weight in excess of 10% of animal body weight were humanely sacrificed. As a measure of efficacy, the % T (treatment)/C(control) and % TGI (% Tumor growth inhibition) values were calculated. Graphs and statistical analysis were performed using GraphPad Prism®, Version 7.0. For analysis of tumor volume data, statistical comparison was done on Day 18 for all groups using One-way ANOVA with Dunnett's multiple comparison test. All analyses and comparisons was evaluated at the 5% (p<0.05) level. A “p” value less than 0.05 was considered as significant.

Row | Compound | phagocytosis of multiple myeloma cells (FACS, FITC and APC positive cells) [1] | phagocytosis of lymphoma cells (luminescence intensity) [2] | % TGI ([3]; A20 tumor bearing Balb/c mice, Compound 6 30 mg/kg bid oral, anti-mouse PD-L1 antibody 200 μg/animal i.p. Day 1, 3, 6, 9, statistics on Day 18) | tolerability (clinical signs, mortality) ([3]; Compound 6 30 mg/kg bid, single agent or in combination with PD-L1 antibody, 21 days) | tumor growth inhibition (TGI) ([3]; at the end of treatment period (21 days), Compound 6 30 mg/kg, A20 tumor bearing mice) [%]
1 | NC(=O)CC[C@H](N)c1noc(CNC(=O)N2CCCC2C(=O)O)n1 (stereo partly shown) [Compound 6] | Enhanced phagocytosis | Enhanced phagocytosis | 72* % | well tolerated without any treatment related clinical signs and mortality | 72
2 | N=C(N)NCCC[C@H](NC(=O)N1CCCC1C(=O)O)c1nc([C@@H](N)CCC(=O)O)no1 (stereo partly shown) [Compound 3] | Enhanced phagocytosis | Enhanced phagocytosis | – | – | –
